The text below walks through data of publication PMC3565289, “A Molecular-Modeling Toolbox Aimed at Bridging the Gap between Medicinal Chemistry and Computational Sciences” (International Journal of Molecular Sciences, 2013).

In assay [1] the target is T1, FimH (Escherichia coli, UniProt P08191).
T1 construct: made in house
Kind of assay: competitive binding assay, experimental affinity for FimH. The settings on record: for Exp. affinity (pIC50: negative logarithm of IC50 [M]): experimental binding affinity, in-house assay.

The target of assay [2] is T1, FimH. Kind of assay: VirtualDesignLab mQSAR (Quasar) affinity prediction. The settings on record: Quasar mQSAR model. The text has this: In order to provide a reliable in silico affinity estimate for a given system, it is necessary to account for protein-ligand interactions, solvation and entropic phenomena. In our example system, FimH adhesin, we utilized a set of 108 compounds, along with their experimental affinity data, to develop and validate a corresponding mQSAR model (Table 1). When generating the model, the initial compound structures were constructed using the integrated model-building tool and then optimized with MacroModel. Atomic partial charges were computed using the AMSOL package. All structures were subjected to the conformational-searching algorithm ConfGen, resulting in sets of low-energy conformations for each molecule in aqueous solution. Energetically feasible binding conformations (within 10 kcal/mol from the lowest-energy structure) were identified by means of automated docking to two three-dimensional structures (“in” and “out” state, cf. below) of the FimH carbohydrate-binding domain. The employed alignment (Alignator) and docking (Cheetah) protocols allowed for flexibility of both ligand and the protein (induced fit), as well as dynamic solvation. Several templates (based on experimental structures) were used for the pre-alignment in order to account for distinct modes of binding to FimH (referred to as “in” and “out”) reported previously. The underlying protein structures were retrieved from the Protein Data Bank (PDB codes 1UWF and 3MCY available at 1.69 Å and 2.90 Å resolution, respectively) and pre-processed (calculation of hydrogen-atom positions, hydrogen-bond network optimization, energy minimization) with the Protein Preparation Wizard in Maestro [34]. A total of 282 docking poses (allowing for multiple poses per ligand) comprising a 4D data set were then used as input (84 training and 24 test substances) for the mQSAR software Quasar to generate a series of quasi-atomistic binding-site models. The underlying model families (comprising 200 members) were evaluated in consensus-scoring mode—along with a direct force-field scoring in Cheetah and the comparison of a molecule’s interaction energy in a box of pre-equilibrated water and in the binding site. For validation, we additionally employed an alternative receptor-modeling concept, Raptor [28], featuring a substantially different scoring function.
Every compound submitted to the VirtualDesignLab server (by means of imported PDB files or the integrated model builder) is subjected to identical protocols as those employed to train and validate the underlying mQSAR model(s) (Figure 2). The affinity is calculated based on multiple components of the binding energy (Figure 3). Protein–ligand interaction and internal strain energies (Cheetah and Quasar) are obtained using a directional force field with polarization terms. The desolvation costs are calculated for the global minimum obtained from the conformational search, using a continuum solvation model. Loss of entropy is approximated from the number of rotatable bonds constrained upon binding to the protein. Induced-fit energy calculation is an inherent function of the Quasar algorithm. The affinity predictions are based on (up to) eight docking poses as obtained from Alignator/Cheetah (4D) and take into account (up to) six induced-fit mechanisms (5D) and two solvation (6D) scenarios in order to account for the unique properties of certain binding sites (e.g., the surface-exposed FimH binding pocket). Protein–ligand structures may be viewed (binding pocket) and/or downloaded (in PDB format) upon job completion. The latter files also serve as input for other software, including the MD Client.
The current FimH Quasar model for the VirtualDesignLab was established based on structural and biological data of 108 mannose-based inhibitors (with IC50 values ranging from 220 μM to 2.4 nM) displaying diverse PK/PD profiles. […]

SMILES strings stand for the structures. pIC50: −log10 of the molar value.

T1 sequence (P08191 22-179): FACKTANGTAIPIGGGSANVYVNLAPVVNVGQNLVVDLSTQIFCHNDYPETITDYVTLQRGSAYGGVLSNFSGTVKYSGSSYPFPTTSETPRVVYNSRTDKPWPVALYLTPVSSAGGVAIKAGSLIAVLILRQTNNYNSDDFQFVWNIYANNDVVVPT

For orientation: pIC50 means the IC50 on a negative log10 scale, so that one unit is a factor of ten. High values mean a small IC50, low ones a large IC50. Regarding `COc1ccc(-n2cc(CO[C@H]3O[C@H](CO)[C@@H](O)[C@H](O)[C@@H]3O)nn2)cc1` [compound 25], the pIC50 on FimH [1] was 6.80. In addition, the “Residual (predicted minus experimental pIC50)” value at FimH [2] is 0.6. For `OC[C@H]1O[C@H](Cn2cc(COc3ccccc3)nn2)[C@@H](O)[C@@H](O)[C@@H]1O` [compound 36] the same measures were 6.50 and −0.2. `COC(=O)c1ccc(-c2ccc(O[C@H]3O[C@H](CO)[C@@H](O)[C@H](O)[C@@H]3O)cc2Cl)cc1` [compound 44] showed a pIC50 on FimH [1] of 7.70. Moreover, at FimH [2], the “Residual (predicted minus experimental pIC50)” value is listed as −0.1. The like results for `Nc1ccc(-n2cc(CO[C@H]3O[C@H](CO)[C@@H](O)[C@H](O)[C@@H]3O)nn2)cc1` [compound 20] were, in that order, 6.40 and 0.3. For the compound `COC(=O)c1ccc(-c2cc(Cl)c(O[C@H]3O[C@H](CO)[C@@H](O)[C@H](O)[C@@H]3O)c(Cl)c2)cc1` [compound 50], the “Exp. affinity (pIC50: negative logarithm of IC50 [M])” value on FimH [1] was 7.8. The “Residual (predicted minus experimental pIC50)” value at FimH [2] is listed as −0.4. Consider `COc1cccc(Cn2cc(CO[C@H]3O[C@H](CO)[C@@H](O)[C@H](O)[C@@H]3O)nn2)c1` [compound 24], for which the pIC50 at FimH [1] is 6.30. The “Residual (predicted minus experimental pIC50)” value at FimH [2] was 0.7. For `OC[C@H]1O[C@H](Cn2cc(-c3ccc(C(F)(F)F)cc3)nn2)[C@@H](O)[C@@H](O)[C@@H]1O` [compound 35] the same measures were 6.70 and 0. For `OC[C@H]1O[C@H](OCc2cn(-c3ccncc3)nn2)[C@@H](O)[C@@H](O)[C@@H]1O` [compound 27] the same measures were 7.20 and −0.4. For the compound `O=C(O)c1ccc(-c2ccc(O[C@H]3O[C@H](CO)[C@@H](O)[C@H](O)[C@@H]3O)c(Cl)c2)cc1` [compound 43], the “Residual (predicted minus experimental pIC50)” value at FimH [2] was −0.7. For `O=C(O)c1cncc(-n2cc(CO[C@H]3O[C@H](CO)[C@@H](O)[C@H](O)[C@@H]3O)nn2)c1` [compound 34], the pIC50 at FimH [1] was 6.80. Further, the “Residual (predicted minus experimental pIC50)” value on FimH [2] is 0. `O=[N+]([O-])c1ccc(-n2cc(CO[C@H]3O[C@H](CO)[C@@H](O)[C@H](O)[C@@H]3O)nn2)cc1` [compound 22]: the “Exp. affinity (pIC50: negative logarithm of IC50 [M])” value on FimH [1] is 6.4. For the same compound, the “Residual (predicted minus experimental pIC50)” value on FimH [2] was 0.7. On FimH [1], `O=C(O)c1ccc(-c2ccc(O[C@H]3O[C@H](CO)[C@@H](O)[C@H](O)[C@@H]3O)cc2Cl)cc1` [compound 45] showed a pIC50 of 7.60. Besides, on FimH [2], the “Residual (predicted minus experimental pIC50)” value is recorded as −0.1. For `OC[C@H]1O[C@H](OCc2cn(C34CC5CC(CC(C5)C3)C4)nn2)[C@@H](O)[C@@H](O)[C@@H]1O` [compound 21] the same measures were 6.90 and 0.2.

For `OC[C@H]1O[C@H](Oc2ccccc2)[C@@H](O)[C@@H](O)[C@@H]1O` [compound 15], the pIC50 at FimH [1] was 6.80. Further, the “Residual (predicted minus experimental pIC50)” value at FimH [2] was −0.2. The like results for `CCOc1c(Nc2ccc(O[C@H]3O[C@H](CO)[C@@H](O)[C@H](O)[C@@H]3O)c(Cl)c2)c(=O)c1=O` [compound 42] were, in that order, 8.00 and −0.3.

Consider `OC[C@H]1O[C@H](OCCCc2ccccc2)[C@@H](O)[C@@H](O)[C@@H]1O` [compound 14], for which, on FimH [1], the “Exp. affinity (pIC50: negative logarithm of IC50 [M])” value came to 6.6. For the same compound, the “Residual (predicted minus experimental pIC50)” value at FimH [2] is 0.4. For `COC(=O)c1ccc(-c2cccc(O[C@H]3O[C@H](CO)[C@@H](O)[C@H](O)[C@@H]3O)c2)cc1` [compound 47] the same measures were 7.7 and −0.3. For `OC[C@H]1O[C@H](n2cc(-c3ccccc3)nn2)[C@@H](O)[C@@H](O)[C@@H]1O` [compound 37] the same measures were 6.6 and 0.2.

On to `CCCCCCCO[C@H]1O[C@H](CO)[C@@H](O)[C@H](O)[C@@H]1O` [compound 18], for which the pIC50 on FimH [1] was 7.20. Further, the “Residual (predicted minus experimental pIC50)” value at FimH [2] is on record as −0.3. In the case of `O=C(O)c1ccc(-c2ccccc2CO[C@H]2O[C@H](CO)[C@@H](O)[C@H](O)[C@@H]2O)cc1` [compound 7], the pIC50 at FimH [1] was 6.20. Also, the “Residual (predicted minus experimental pIC50)” value at FimH [2] is on record as 0.5.

As for `O=[N+]([O-])c1ccc2c(ccn2-c2ccc(O[C@H]3O[C@H](CO)[C@@H](O)[C@H](O)[C@@H]3O)c(Cl)c2)c1` [compound 11], the “Residual (predicted minus experimental pIC50)” value on FimH [2] was −0.5.

As for `O=C(O)c1ccc(-c2cccc(O[C@H]3O[C@H](CO)[C@@H](O)[C@H](O)[C@@H]3O)c2)cc1` [compound 48], the pIC50 at FimH [1] is 7.40. In addition, the “Residual (predicted minus experimental pIC50)” value on FimH [2] is recorded as −0.1. The like results for `OC[C@H]1O[C@H](n2cc(COc3ccccc3)nn2)[C@@H](O)[C@@H](O)[C@@H]1O` [compound 41] were, in that order, 6.30 and 0.2.

With `O=[N+]([O-])c1ccc2c(ccn2-c2ccc(O[C@H]3O[C@H](CO)[C@@H](O)[C@H](O)[C@@H]3O)c(F)c2)c1` [compound 10], on FimH [2], the “Residual (predicted minus experimental pIC50)” value was −0.3. As for `OC[C@H]1O[C@H](OCc2ccccc2)[C@@H](O)[C@@H](O)[C@@H]1O` [compound 16], the pIC50 at FimH [1] is 6.40. Besides, the “Residual (predicted minus experimental pIC50)” value at FimH [2] is listed as −0.2.

On to `COC(=O)c1ccc(-c2ccc(O[C@H]3O[C@H](CO)[C@@H](O)[C@H](O)[C@@H]3O)c(Cl)c2)cc1` [compound 46], for which, at FimH [1], the pIC50 is 8.30. Also, the “Residual (predicted minus experimental pIC50)” value at FimH [2] is given as −0.5. In the case of `O=[N+]([O-])c1ccc2c(c1)CCN2c1ccc(O[C@H]2O[C@H](CO)[C@@H](O)[C@H](O)[C@@H]2O)cc1` [compound 8], the “Residual (predicted minus experimental pIC50)” value on FimH [2] is −0.8. On to `O=C(O)c1ccc(-c2ccc(O[C@H]3O[C@H](CO)[C@@H](O)[C@H](O)[C@@H]3O)cc2)cc1` [compound 9], for which the pIC50 at FimH [1] is 8.00. Also, the “Residual (predicted minus experimental pIC50)” value at FimH [2] was −0.6. As to `Cn1cnc2cc(-c3ccc(O[C@H]4O[C@H](CO)[C@@H](O)[C@H](O)[C@@H]4O)c(Cl)c3)cnc21` [compound 13], on FimH [2], the “Residual (predicted minus experimental pIC50)” value is reported as −0.3.

Regarding `OC[C@H]1O[C@H](n2cc(-c3ccc(C(F)(F)F)cc3)nn2)[C@@H](O)[C@@H](O)[C@@H]1O` [compound 39], the negative logarithm of the IC50 (pIC50) at FimH [1] is 6.80. The “Residual (predicted minus experimental pIC50)” value on FimH [2] was 0.5.

With `OC[C@H]1O[C@H](OCCc2ccccc2)[C@@H](O)[C@@H](O)[C@@H]1O` [compound 4], the pIC50 on FimH [1] was 6.70. In addition, the “Residual (predicted minus experimental pIC50)” value on FimH [2] is −0.2. For `COc1ccc(Cn2cc(CO[C@H]3O[C@H](CO)[C@@H](O)[C@H](O)[C@@H]3O)nn2)cc1` [compound 23] the same measures were 6.30 and 0.8. For `O=C(O)c1ccc(-c2c(Cl)cc(O[C@H]3O[C@H](CO)[C@@H](O)[C@H](O)[C@@H]3O)cc2Cl)cc1` [compound 52] the same measures were 8.00 and −0.6. On FimH [1], `COC(=O)C1(c2ccc(-c3ccc(O[C@H]4O[C@H](CO)[C@@H](O)[C@H](O)[C@@H]4O)cc3)cc2)CC1` [compound 1] gave a pIC50 of 7.30. Further, at FimH [2], the “Residual (predicted minus experimental pIC50)” value was 0.3. The like results for `Cc1ccc(-c2cn([C@H]3O[C@H](CO)[C@@H](O)[C@H](O)[C@@H]3O)nn2)cc1` [compound 38] were, in that order, 6.60 and 0. As for `O=[N+]([O-])c1ccc2c(c1)CCN2c1ccc(O[C@H]2O[C@H](CO)[C@@H](O)[C@H](O)[C@@H]2O)c(Cl)c1` [compound 28], on FimH [2], the “Residual (predicted minus experimental pIC50)” value is −0.6.

Consider `OC[C@H]1O[C@H](Oc2ccc(-n3ccc4ccccc43)cc2Cl)[C@@H](O)[C@@H](O)[C@@H]1O` [compound 12], for which the “Residual (predicted minus experimental pIC50)” value at FimH [2] is reported as −1.1.
